In ChEMBL document CHEMBL3351808, “Thiophenes, polyacetylenes and terpenes from the aerial parts of Eclipata prostrate” (Bioorg Med Chem, 2014) one finds Activity, IC50 and RLU data, which are given here for 17 molecules.

Molecules are shown by their SMILES. Active and inactive are the calls of the source. No cut-off for these calls is given here. Some results are limits rather than exact numbers.

The IC50 is the concentration at which inhibition is half-maximal. Higher therefore signals weaker potency.

The target in experiment [1] is T1, Nuclear factor NF-kappa-B complex (Homo sapiens) (UniProt Q00653+P19838+Q04206). Nature of the experiment: Inhibition of NFkappaB (unknown origin) expressed in LPS-stimulated HEK293-NF-kappaB-luc cells assessed as luminescence signals measured by relative light units at 1 ug/mL pre-treated for 4 hrs before LPS challenge for 24 hrs by luciferase assay. The format is cell-based.
T1 sequence (P19838 whole entry, looked up): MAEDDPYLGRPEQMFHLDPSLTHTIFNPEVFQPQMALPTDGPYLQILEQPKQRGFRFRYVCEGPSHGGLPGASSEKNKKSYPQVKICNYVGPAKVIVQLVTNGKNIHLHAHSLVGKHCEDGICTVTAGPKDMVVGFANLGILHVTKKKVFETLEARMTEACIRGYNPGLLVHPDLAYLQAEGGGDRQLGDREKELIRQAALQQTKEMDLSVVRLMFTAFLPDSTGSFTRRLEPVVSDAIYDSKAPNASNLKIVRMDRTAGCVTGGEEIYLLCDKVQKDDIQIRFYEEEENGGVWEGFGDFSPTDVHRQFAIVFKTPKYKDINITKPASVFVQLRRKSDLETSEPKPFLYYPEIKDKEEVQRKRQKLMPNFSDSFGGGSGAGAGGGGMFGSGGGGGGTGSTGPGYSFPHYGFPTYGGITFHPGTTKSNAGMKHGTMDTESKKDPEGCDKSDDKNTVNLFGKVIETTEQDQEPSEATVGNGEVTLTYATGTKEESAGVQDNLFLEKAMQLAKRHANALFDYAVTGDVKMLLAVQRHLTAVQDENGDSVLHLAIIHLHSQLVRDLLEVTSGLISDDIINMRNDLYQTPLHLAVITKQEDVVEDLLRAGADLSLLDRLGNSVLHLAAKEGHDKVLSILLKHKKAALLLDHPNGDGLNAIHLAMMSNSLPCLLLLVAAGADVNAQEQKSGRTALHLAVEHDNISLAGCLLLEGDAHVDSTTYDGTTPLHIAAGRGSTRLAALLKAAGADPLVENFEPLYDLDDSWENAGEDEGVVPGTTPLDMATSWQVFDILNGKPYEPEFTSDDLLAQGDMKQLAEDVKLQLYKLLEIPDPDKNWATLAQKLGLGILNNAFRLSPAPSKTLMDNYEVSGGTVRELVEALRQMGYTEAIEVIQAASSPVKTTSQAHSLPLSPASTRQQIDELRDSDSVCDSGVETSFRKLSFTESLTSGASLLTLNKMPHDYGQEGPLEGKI
T1 sequence (Q00653 whole entry, looked up): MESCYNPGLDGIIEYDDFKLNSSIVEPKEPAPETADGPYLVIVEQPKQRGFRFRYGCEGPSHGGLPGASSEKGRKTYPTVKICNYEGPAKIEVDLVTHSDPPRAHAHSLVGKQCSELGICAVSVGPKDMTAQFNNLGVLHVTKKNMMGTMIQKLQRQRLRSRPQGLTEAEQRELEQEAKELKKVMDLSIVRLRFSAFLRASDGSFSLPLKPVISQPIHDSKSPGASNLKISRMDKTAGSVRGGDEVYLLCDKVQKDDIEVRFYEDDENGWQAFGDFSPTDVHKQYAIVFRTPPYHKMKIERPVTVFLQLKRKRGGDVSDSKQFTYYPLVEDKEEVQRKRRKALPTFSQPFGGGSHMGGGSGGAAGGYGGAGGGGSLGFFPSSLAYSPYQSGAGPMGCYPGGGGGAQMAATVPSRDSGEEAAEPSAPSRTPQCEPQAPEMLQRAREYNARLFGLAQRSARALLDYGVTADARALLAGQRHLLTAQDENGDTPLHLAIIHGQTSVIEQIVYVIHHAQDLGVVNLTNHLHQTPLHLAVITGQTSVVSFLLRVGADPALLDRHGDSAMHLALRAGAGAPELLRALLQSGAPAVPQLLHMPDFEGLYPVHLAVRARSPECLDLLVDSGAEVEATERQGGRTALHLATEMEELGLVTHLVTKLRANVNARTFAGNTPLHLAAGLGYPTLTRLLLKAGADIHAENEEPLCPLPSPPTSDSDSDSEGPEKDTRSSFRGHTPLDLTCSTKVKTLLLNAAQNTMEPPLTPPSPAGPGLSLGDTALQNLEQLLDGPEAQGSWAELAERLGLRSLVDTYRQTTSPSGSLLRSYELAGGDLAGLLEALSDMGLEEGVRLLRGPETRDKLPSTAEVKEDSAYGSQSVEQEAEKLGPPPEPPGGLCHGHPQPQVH
T1 sequence (Q04206 whole entry, looked up): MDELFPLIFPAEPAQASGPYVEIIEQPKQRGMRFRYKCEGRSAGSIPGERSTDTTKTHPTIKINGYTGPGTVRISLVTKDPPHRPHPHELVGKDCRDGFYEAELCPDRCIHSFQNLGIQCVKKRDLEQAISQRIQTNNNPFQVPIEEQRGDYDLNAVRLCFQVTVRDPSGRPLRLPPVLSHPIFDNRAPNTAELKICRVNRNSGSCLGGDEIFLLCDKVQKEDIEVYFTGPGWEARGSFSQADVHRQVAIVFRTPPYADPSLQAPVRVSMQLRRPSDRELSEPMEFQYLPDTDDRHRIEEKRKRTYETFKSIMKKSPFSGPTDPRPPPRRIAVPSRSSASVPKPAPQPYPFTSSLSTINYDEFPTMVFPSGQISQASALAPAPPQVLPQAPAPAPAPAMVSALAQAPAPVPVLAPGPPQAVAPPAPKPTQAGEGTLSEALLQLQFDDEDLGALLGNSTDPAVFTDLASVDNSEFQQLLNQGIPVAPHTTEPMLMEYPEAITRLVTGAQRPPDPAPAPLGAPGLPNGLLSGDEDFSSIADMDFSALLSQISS

Experiment [2] concerns the target T1, Nuclear factor NF-kappa-B complex (Homo sapiens). Nature of the experiment: Inhibition of NFkappaB (unknown origin) expressed in LPS-stimulated HEK293-NF-kappaB-luc cells assessed as luminescence signals measured by relative light units at 100 ug/mL pre-treated for 4 hrs before LPS challenge for 24 hrs by luciferase assay. The format is cell-based.
The target is the same in experiment [3]. The experiment in a line: Inhibition of NFkappaB (unknown origin) expressed in LPS-stimulated HEK293-NF-kappaB-luc cells assessed as luminescence signals measured by relative light units at 10 ug/mL pre-treated for 4 hrs before LPS challenge for 24 hrs by luciferase assay. It counts as cell-based.
The target is the same in experiment [4]. Nature of the experiment: Inhibition of NFkappaB (unknown origin) expressed in LPS-stimulated HEK293-NF-kappaB-luc cells assessed as luminescence signals measured by relative light units at 500 ug/mL pre-treated for 4 hrs before LPS challenge for 24 hrs by luciferase assay. The format is cell-based.
In another experiment the target is Dipeptidyl peptidase 4 (Homo sapiens, UniProt P27487). Nature of the experiment: Inhibition of DPP4 in human plasma using Gly-Pro-AMC substrate incubated for 20 mins by fluorometry.
Chain of Dipeptidyl peptidase 4 (P27487 whole entry): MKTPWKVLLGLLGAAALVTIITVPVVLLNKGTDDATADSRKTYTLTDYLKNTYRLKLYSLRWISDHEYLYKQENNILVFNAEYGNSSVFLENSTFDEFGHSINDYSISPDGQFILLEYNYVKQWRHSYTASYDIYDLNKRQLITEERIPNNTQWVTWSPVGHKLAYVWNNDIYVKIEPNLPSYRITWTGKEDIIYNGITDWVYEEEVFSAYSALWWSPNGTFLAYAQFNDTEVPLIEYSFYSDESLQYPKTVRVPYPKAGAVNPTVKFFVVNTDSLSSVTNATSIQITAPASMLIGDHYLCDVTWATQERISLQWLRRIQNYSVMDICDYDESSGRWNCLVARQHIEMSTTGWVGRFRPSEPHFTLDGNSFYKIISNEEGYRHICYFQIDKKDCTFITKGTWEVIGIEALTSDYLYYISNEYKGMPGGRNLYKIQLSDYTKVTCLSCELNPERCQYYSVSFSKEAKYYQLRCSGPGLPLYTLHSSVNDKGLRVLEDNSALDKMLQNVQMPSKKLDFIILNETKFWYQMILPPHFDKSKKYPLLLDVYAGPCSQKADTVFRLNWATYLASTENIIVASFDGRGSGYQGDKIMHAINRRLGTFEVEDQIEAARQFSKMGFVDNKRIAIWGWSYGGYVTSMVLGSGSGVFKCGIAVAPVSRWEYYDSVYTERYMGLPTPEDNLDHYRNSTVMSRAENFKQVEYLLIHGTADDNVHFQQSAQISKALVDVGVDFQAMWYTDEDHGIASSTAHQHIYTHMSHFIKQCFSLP

On to `CC(C)[C@H]1C[C@H]2O[C@@]2(C)[C@@H](O)[C@H]1O[C@@H]1O[C@H](CO)[C@@H](O)[C@H](O)[C@H]1O` (relative stereo), for which the result in experiment [1], in experiment [2], in experiment [3] and in experiment [4] was inactive.

For the molecule `CC1(C)CC[C@]2(C(=O)O[C@@H]3O[C@H](CO)[C@@H](O)[C@H](O)[C@H]3O)CC[C@]3(C)C(=CC[C@@H]4[C@@]5(C)CC[C@H](O[C@@H]6O[C@H](CO)[C@@H](O)[C@H](O)[C@H]6O)C(C)(C)[C@@H]5CC[C@]43C)[C@@H]2C1`, the outcome in experiment [1], in experiment [2], in experiment [3] and in experiment [4] was inactive.

For the molecule `C=CC(O)C(/C=C/C#CC#CC#CC)O[C@@H]1O[C@H](CO)[C@@H](O)[C@H](O)[C@H]1O` (some centres not stated), the IC50 on Dipeptidyl peptidase 4 is more than 100 µM.

As for `CC1(C)CC[C@]2(C(=O)O[C@@H]3O[C@H](CO)[C@@H](O)[C@H](O)[C@H]3O)CC[C@]3(C)C(=CC[C@@H]4[C@@]5(C)CC[C@H](O[C@@H]6O[C@H](CO)[C@@H](O)[C@H](O)[C@H]6O[C@@H]6O[C@H](CO)[C@@H](O)[C@H](O)[C@H]6O)C(C)(C)[C@@H]5CC[C@]43C)[C@@H]2C1`, the RLU is 0.09 in experiment [1], 0.47 in experiment [2], 0.23 in experiment [3] and 0.59 in experiment [4].

For `C=C(C)[C@@H]1CC[C@]2(C(=O)O[C@@H]3O[C@H](CO)[C@@H](O)[C@H](O)[C@H]3O)CC[C@]3(C)[C@H](CC[C@@H]4[C@@]5(C)CC[C@H](O[C@@H]6O[C@H](CO)[C@@H](O)[C@H](O)[C@H]6O)C(C)(C)[C@@H]5CC[C@]43C)[C@@H]12`, the result in experiment [1], in experiment [2], in experiment [3] and in experiment [4] was inactive.

Take `C[C@H]1[C@H]2[C@H]3CC[C@@H]4[C@@]5(C)CC[C@H](O[C@@H]6O[C@H](CO)[C@@H](O)[C@H](O)[C@H]6O)C(C)(C)[C@@H]5CC[C@@]4(C)[C@]3(C)CC[C@@]2(CO)CC[C@]1(C)O`: the RLU in experiment [1] is 0.18; in experiment [2] it was 0.47; in experiment [3], 0.24; in experiment [4], 0.5.

Turning to `CC1(C)CC[C@]2(C(=O)O[C@@H]3O[C@H](CO)[C@@H](O)[C@H](O)[C@H]3O)[C@H](O)C[C@]3(C)C(=CC[C@@H]4[C@@]5(C)CC[C@H](O[C@@H]6O[C@H](CO)[C@@H](O)[C@H](O)[C@H]6O[C@@H]6O[C@H](CO)[C@@H](O)[C@H](O)[C@H]6O)C(C)(C)[C@@H]5CC[C@]43C)[C@@H]2C1`, the outcome in experiment [1], in experiment [2], in experiment [3] and in experiment [4] was inactive.

For the molecule `C[C@H]1[C@H]2[C@H]3CC[C@@H]4[C@@]5(C)CC[C@H](O[C@@H]6O[C@H](CO)[C@@H](O)[C@H](O)[C@H]6O)C(C)(C)[C@@H]5CC[C@@]4(C)[C@]3(C)C[C@H](O)[C@@]2(C)CC[C@]1(C)O`, the result in experiment [1], in experiment [2], in experiment [3] and in experiment [4] was inactive.

Regarding `CC1(C)[C@@H](O[C@@H]2O[C@H](CO)[C@@H](O)[C@H](O)[C@H]2O)CC[C@]2(C)[C@H]3CC=C4[C@@H]5C[C@](C)(CO)CC[C@]5(C)[C@@H](O)C[C@@]4(C)[C@]3(C)CC[C@@H]12`, the outcome in experiment [1], in experiment [2], in experiment [3] and in experiment [4] was inactive.

`CC(C)[C@H]1C[C@H]2O[C@@]2(C)[C@@H](O)[C@H]1O[C@@H]1O[C@H](COC(=O)/C=C/c2ccc(O)c(O)c2)[C@@H](O)[C@H](O)[C@H]1O` (relative stereo): the result in experiment [1], in experiment [2], in experiment [3] and in experiment [4] was inactive.

For `CC#CC#CC#C/C=C/C=C/C(CCO)O[C@@H]1O[C@H](CO)[C@@H](O)[C@H](O)[C@H]1O` (some centres not stated), the IC50 on Dipeptidyl peptidase 4 was more than 100 µM.

Take `C[C@]12CCC(=O)C=C1CC[C@@H]1[C@@H]2[C@@H](O)C[C@@]2(C)[C@H]1CC[C@]2(O)C(=O)CO`: the RLU in experiment [1] stood at 0.15; in experiment [2] it was 0.45; in experiment [3], 0.32; in experiment [4], 0.64.

Regarding `CC1(C)CC[C@]2(C(=O)O[C@@H]3O[C@H](CO)[C@@H](O)[C@H](O)[C@H]3O)[C@H](O)C[C@]3(C)C(=CC[C@@H]4[C@@]5(C)CC[C@H](O[C@@H]6O[C@H](CO)[C@@H](O)[C@H](O)[C@H]6O)C(C)(C)[C@@H]5CC[C@]43C)[C@@H]2C1`, the RLU in experiment [1] worked out at 0.08; in experiment [2] it was 0.33; in experiment [3] it was 0.22; in experiment [4], 0.5.

Take `CC1(C)C=C2[C@H]3CC[C@@H]4[C@@]5(C)CC[C@H](O[C@@H]6O[C@H](CO)[C@@H](O)[C@H](O)[C@H]6O[C@@H]6O[C@H](CO)[C@@H](O)[C@H](O)[C@H]6O)C(C)(C)[C@@H]5CC[C@@]4(C)[C@]3(C)CC[C@@]2(C(=O)O[C@@H]2O[C@H](CO)[C@@H](O)[C@H](O)[C@H]2O)CC1`: the RLU in experiment [1] was found to be 0.01; in experiment [2] it was 0.49; in experiment [3], 0.06; in experiment [4] it was 0.72.

As to `CC1(C)CC[C@]2(C(=O)O[C@@H]3O[C@H](CO)[C@@H](O)[C@H](O)[C@H]3O)[C@H](O)C[C@]3(C)C(=CC[C@@H]4[C@@]5(C)CC[C@H](O[C@@H]6O[C@H](CO)[C@@H](O)[C@H](O)[C@H]6OS(=O)(=O)O)C(C)(C)[C@@H]5CC[C@]43C)[C@@H]2C1`, the RLU is -0.01 in experiment [1], 0.23 in experiment [2], 0.16 in experiment [3] and 0.07 in experiment [4].

On to `CC1(C)CC[C@]2(C(=O)O[C@@H]3O[C@H](CO)[C@@H](O)[C@H](O)[C@H]3O)[C@@H](O)C[C@]3(C)C(=CC[C@@H]4[C@@]5(C)CC[C@H](O[C@@H]6O[C@H](CO)[C@@H](O)[C@H](O)[C@H]6O)C(C)(C)[C@@H]5CC[C@]43C)[C@@H]2C1`, for which the outcome in experiment [1], in experiment [2], in experiment [3] and in experiment [4] was inactive.

Regarding `C=CC(C)(O)CC/C=C(\C)CC/C=C(\C)CO[C@@H]1O[C@H](CO)[C@@H](O)[C@H](O)[C@H]1O` (some centres not stated), the RLU was found to be 0.04 in experiment [1], 0.26 in experiment [2], 0.21 in experiment [3] and 0.47 in experiment [4].
